Data from patent publication US10829492B2, “Amino pyrazolopyrimidine compound used as neurotrophic factor tyrosine kinase receptor inhibitor” (CHIA TAI TIANQING PHARMACEUTICAL GROUP CO., LTD., priority 2016, dated 2020).

Each molecule was assayed against TrkA kinase (Homo sapiens (Human), UniProt P04629) (assay: HTRF assay for inhibitory activity (IC50) against NTRK kinase, TrkA). Conditions: Table 1, ATP 40 μM, kinase 0.5 nM.
Format: biochemical
Description: 1. Assay for Inhibitory Activity (IC50) Against NTRK Kinase
A testing platform for TrkA, TrkB and TrkC kinase activity was established based on Homogeneous Time-Resolved Fluorescence (HTRF) assay, and the activities of the compounds were tested using the platform. The compounds were subjected to three-fold gradient dilution with 100% DMSO with a starting concentration of 1 mM (11 concentrations in total). 4 μL of diluted sample for each concentration was added to 96 μL of reaction buffer (50 mM HEPES, pH7.4, 5 mM MgCl2, 1 mM NaVO3, 0.001% Tween-20, 0.01% BSA and 1 mM DTT) and mixed homogeneously to be used as a 4* compound. The reaction buffer was used to formulate 2* TrkA, TrkB and TrkC kinases (purchased from Carna Biosciences 08-186, 08-187, 08-197, and the final concentrations thereof were 0.5 nM, 0.1 nM, and 1 nM, respectively) and 4* substrate mixture (ATP+TK peptide) (wherein the final concentrations of ATP were 40 μM, 50 μM, and 20 μM, respectively; TK peptide, HTRF® KinEASE™-TK, was purchased from Cisbio, and the final concentration thereof was 100 nM) for use. 2.5 μL of the 4* compound was added to a 384-well plate (OptiPlate-384, purchased from PerkinElmer), and then 5 μL of the 2* TrkA, TrkB and TrkC kinases were added, and mixed homogeneously by centrifugation. Then 2.5 μL of the 4* substrate mixture was added to initiate the reaction (the total reaction volume is 10 μL). The 384-well plate was placed in an incubator and incubated for 60 min at 23° C. Then the reaction was terminated by adding 5 μL of Eu3+ cryptate-labeled anti-phosphotyrosine antibody (HTRF® KinEASE™-TK, purchased from Cisbio), and 5 μL of Streptavidin-XL-665 (HTRF® KinEASE™-TK, purchased from Cisbio). After incubated for 1 hr in the incubator, the fluorescence values were read on Envision (purchased from PerkinElmer). The excitation wavelength was 320 nm, and the emission wavelengths for detection were 665 nm and 620 nm. The enzymatic activity was represented by a ratio of the two readout at the two emission wavelengths. The enzymatic activity for each compound was tested at 11 concentrations, and IC50 values of the compounds were obtained by calculating the data using GraFit6.0 software (Erithacus Software).

Sequence of TrkA kinase (P04629 33-796): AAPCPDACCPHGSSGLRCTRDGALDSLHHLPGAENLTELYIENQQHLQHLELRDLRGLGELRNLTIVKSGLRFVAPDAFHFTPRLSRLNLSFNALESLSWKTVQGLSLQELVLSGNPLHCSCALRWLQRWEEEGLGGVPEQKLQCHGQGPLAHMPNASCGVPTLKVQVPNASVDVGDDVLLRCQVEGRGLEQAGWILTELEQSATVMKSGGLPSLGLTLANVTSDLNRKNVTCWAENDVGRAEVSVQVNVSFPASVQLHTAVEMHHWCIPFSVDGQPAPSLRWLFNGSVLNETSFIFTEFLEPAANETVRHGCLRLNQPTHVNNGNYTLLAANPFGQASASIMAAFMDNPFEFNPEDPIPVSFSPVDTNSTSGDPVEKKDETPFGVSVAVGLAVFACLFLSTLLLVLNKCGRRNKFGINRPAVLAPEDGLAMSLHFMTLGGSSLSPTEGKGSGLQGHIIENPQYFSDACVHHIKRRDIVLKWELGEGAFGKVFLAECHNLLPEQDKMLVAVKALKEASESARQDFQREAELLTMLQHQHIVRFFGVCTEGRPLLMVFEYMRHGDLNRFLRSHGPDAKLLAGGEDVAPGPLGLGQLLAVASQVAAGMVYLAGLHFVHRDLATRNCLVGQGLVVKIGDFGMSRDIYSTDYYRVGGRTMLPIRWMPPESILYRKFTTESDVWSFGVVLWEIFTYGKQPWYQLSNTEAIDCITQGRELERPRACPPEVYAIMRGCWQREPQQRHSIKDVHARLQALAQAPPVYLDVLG

SMILES | IC50
CCOC(=O)c1c(NC(C)=O)nn2ccc(N3CCC[C@@H]3c3cc(F)ccc3F)nc12 [Example 9, ethyl (R)-2-acetylamino-5-(2-(2,5-difluorophenyl)pyrrolidin-1-yl)pyrazolo[1,5-a]pyrimidine-3-carboxylate] | < 25 nM
Cc1coc(-c2c(N)nn3ccc(N4CCCC4c4cc(F)ccc4F)nc23)n1 (stereo not shown) [Example 27] | < 25 nM
CCOC(=O)c1c(NC(=O)NC)nn2ccc(N3CCCC3c3cc(F)ccc3F)nc12 (stereo not shown) [Example 7, ethyl 5-(2-(2,5-difluorophenyl)pyrrolidin-1-yl)-2-(3-methylureido)pyrazolo[1,5-a]pyrimidine-3-carboxylate] | < 100 nM
Nc1nn2ccc(N3CCC[C@@H]3c3cc(F)ccc3F)nc2c1C(=O)O [Example 2, (R)-2-amino-5-(2-(2,5-difluorophenyl)pyrrolidin-1-yl)pyrazolo[1,5-a]pyrimidine-3-carboxylic Acid] | < 100 nM
Nc1nn2ccc(N3CCC[C@@H]3c3cc(F)ccc3F)nc2c1C(=O)N1CCC(O)C1 (stereo partly drawn) [Example 10, (2-amino-5-((R)-2-(2,5-difluorophenyl)pyrrolidin-1-yl)pyrazolo[1,5-a]pyrimidin-3-yl) (3-hydroxypyrrolidin-1-yl)methanone] | < 25 nM
N#Cc1c(N)nn2ccc(N3C[C@@H](O)C[C@@H]3c3cc(F)ccc3F)nc12 [Example 44, 2-amino-5-((2R,4S)-2-(2,5-difluorophenyl)-4-hydroxypyrrolidin-1-yl)pyrazolo[1,5-a]pyrimidine-3-carbonitrile] | < 25 nM
CNc1nn2ccc(N3CCC[C@@H]3c3cc(F)ccc3F)nc2c1C(N)=O [Example 21, (R)-5-(2-(2,5-difluorophenyl)pyrrolidin-1-yl)-2-(methylamino)pyrazolo[1,5-a]pyrimidine-3-carboxamide] | < 500 nM
CCOC(=O)c1c(NCCN2CCOCC2)nn2ccc(N3CCC[C@@H]3c3cc(F)ccc3F)nc12 [Example 23, ethyl (R)-5-(2-(2,5-difluorophenyl)pyrrolidin-1-yl)-2-((2-morpholinylethyl)amino)pyrazolo[1,5-a]pyrimidine-3-carboxylate] | < 100 nM
Cc1csc(-c2c(N)nn3ccc(N4CCCC4c4cc(F)ccc4F)nc23)n1 (stereo not shown) [Example 28] | < 25 nM
Nc1nn2ccc(N3CCCC3c3cc(F)ccc3F)nc2c1-c1cccc(N2CCOCC2)c1 (stereo not shown) [Example 33, 5-(2-(2,5-difluorophenyl)pyrrolidin-1-yl)-3-(3-morpholinylphenyl)pyrazolo[1,5-a]pyrimidin-2-amine] | < 25 nM
CCNc1nn2ccc(N3CCC[C@@H]3c3cc(F)ccc3F)nc2c1C(=O)OCC [Example 22, ethyl (R)-5-(2-(2,5-difluorophenyl)pyrrolidin-1-yl)-2-(ethylamino)pyrazolo[1,5-a]pyrimidine-3-carboxylate] | < 100 nM
CCOC(=O)c1c(N)nn2ccc(N3C[C@@H](F)C[C@H]3c3cc(F)ccc3F)nc12 [Example 37, ethyl 2-amino-5-((2S,4S)-2-(2,5-difluorophenyl)-4-fluoropyrrolidin-1-yl)pyrazolo[1,5-a]pyrimidine-3-carboxylate] | < 500 nM
CCOC(=O)c1c(N)nn2ccc(N3CC(=O)CC3c3cc(F)ccc3F)nc12 (stereo not shown) [Example 43, ethyl 2-amino-5-(2-(2,5-difluorophenyl)-4-oxopyrrolidin-1-yl)pyrazolo[1,5-a]pyrimidine-3-carboxylate] | < 25 nM
Nc1cc2nc(N3CCCC3c3cc(F)ccc3F)ccn2n1 (stereo not shown) [Example 24, 5-(2-(2,5-difluorophenyl)pyrrolidin-1-yl)pyrazolo[1,5-a]pyrimidin-2-amine] | < 500 nM
NC(=O)c1c(N)nn2ccc(N3C[C@@H](O)CC3c3cc(F)ccc3F)nc12 (stereo in doubt) [Example 47, 2-amino-5-((2R,4S)-2-(2,5-difluorophenyl)-4-hydroxypyrrolidin-1-yl)pyrazolo[1,5-a]pyrimidine-3-carboxamide] | < 1000 nM
CCOC(=O)c1c(NC)nn2ccc(N3CCC[C@@H]3c3cc(F)ccc3F)nc12 [Example 20, ethyl (R)-5-(2-(2,5-difluorophenyl)pyrrolidin-1-yl)-2-(methylamino)pyrazolo[1,5-a]pyrimidine-3-carboxylate] | < 1000 nM
CCOC(=O)c1c(N)nn2ccc(N3CC(F)(F)CC3c3cc(F)ccc3F)nc12 (stereo not shown) [Example 38, ethyl 2-amino-5-(2-(2,5-difluorophenyl)-4,4-difluoropyrrolidin-1-yl)pyrazolo[1,5-a]pyrimidine-3-carboxylate] | < 25 nM
CNC(=O)c1c(N)nn2ccc(N3CCC[C@@H]3c3cc(F)ccc3F)nc12 [Example 3, (R)-2-amino-5-(2-(2,5-difluorophenyl)pyrrolidin-1-yl)-N-methylpyrazolo[1,5-a]pyrimidine-3-carboxamide] | < 1 nM
CCOC(=O)c1c(N)nn2ccc(N3CCC[C@@H]3c3cc(F)ccc3F)nc12 [Example 1, ethyl (R)-2-amino-5-(2-(2,5-difluorophenyl)pyrrolidin-1-yl)pyrazolo[1,5-a]pyrimidine-3-carboxylate] | < 1 nM
Nc1nn2ccc(N3C[C@@H](F)C[C@@H]3c3cc(F)ccc3F)nc2c1C(=O)NC1(CO)CC1 [Example 52, 2-amino-5-((2R,4S)-2-(2,5-difluorophenyl)-4-fluoropyrrolidin-1-yl)-N-(1-(hydroxymethyl)cyclopropyl)pyrazolo[1,5-a]pyrimidine-3-carboxamide] | < 1 nM

More lines, now with the values ahead:

IC50 | SMILES
< 1 nM | NC(=O)c1c(N)nn2ccc(N3CCCC3c3cc(F)ccc3F)nc12 (stereo not shown) [Example 6, 2-amino-5-(2-(2,5-difluorophenyl)pyrrolidin-1-yl)pyrazolo[1,5-a]pyrimidine-3-carboxamide]
< 1 nM | Cn1cc(-c2c(N)nn3ccc(N4CCC[C@@H]4c4cc(F)ccc4F)nc23)cn1 [Example 34]
< 1 nM | Nc1nn2ccc(N3CCCC3c3cc(F)ccc3F)nc2c1-c1nc(C(=O)N2CC[C@H](O)C2)cs1 (stereo partly drawn) [Example 30, (2-(2-amino-5-(2-(2,5-difluorophenyl)pyrrolidin-1-yl)pyrazolo[1,5-a]pyrimidin-3-yl)thiazol-4-yl)((S)-3-hydroxypyrrolidin-1-yl)methanone]
< 1 nM | Nc1nn2ccc(N3CCC[C@@H]3c3cc(F)ccc3F)nc2c1C(=O)NCCO [Example 13, (R)-2-amino-5-(2-(2,5-difluorophenyl)pyrrolidin-1-yl)-N-(2-hydroxyethyl)pyrazolo[1,5-a]pyrimidine-3-carboxamide]
< 1 nM | CCOC(=O)c1csc(-c2c(N)nn3ccc(N4CCCC4c4cc(F)ccc4F)nc23)n1 (stereo not shown) [Example 29, ethyl 2-(2-amino-5-(2-(2,5-difluorophenyl)pyrrolidin-1-yl)pyrazolo[1,5-a]pyrimidin-3-yl)thiazole-4-carboxylate]
< 1 nM | CN(C)CCNC(=O)c1c(N)nn2ccc(N3CCC[C@@H]3c3cc(F)ccc3F)nc12 [Example 19, (R)-2-amino-5-(2-(2,5-difluorophenyl)pyrrolidin-1-yl)-N-(2-(dimethylamino)ethyl)pyrazolo[1,5-a]pyrimidine-3-carboxamide]
< 1 nM | CCOC(=O)c1c(N)nn2ccc(N3CCCC3c3cc(F)ccc3F)nc12 (stereo not shown) [Example 5, ethyl 2-amino-5-(2-(2,5-difluorophenyl)pyrrolidin-1-yl)pyrazolo[1,5-a]pyrimidine-3-carboxylate]
< 1 nM | CCOC(=O)c1c(N)nn2ccc(N3C[C@@H](F)C[C@@H]3c3cc(F)ccc3F)nc12 [Example 35, ethyl 2-amino-5-((2R,4S)-2-(2,5-difluorophenyl)-4-fluoropyrrolidin-1-yl)pyrazolo[1,5-a]pyrimidine-3-carboxylate]
< 1 nM | Nc1nn2ccc(N3C[C@@H](F)C[C@@H]3c3cc(F)ccc3F)nc2c1C(=O)NOCCO [Example 50, 2-amino-5-((2R,4S)-2-(2,5-difluorophenyl)-4-fluoropyrrolidin-1-yl)-N-(2-hydroxyethoxy)pyrazolo[1,5-a]pyrimidine-3-carboxamide]
< 1 nM | Nc1nn2ccc(N3C[C@@H](F)C[C@@H]3c3cc(F)ccc3F)nc2c1C(=O)NC1CC1 [Example 51, 2-amino-N-cyclopropyl-5-((2R,4S)-2-(2,5-difluorophenyl)-4-fluoropyrrolidin-1-yl)pyrazolo[1,5-a]pyrimidine-3-carboxamide]
< 1 nM | NC(=S)c1c(N)nn2ccc(N3CCCC3c3cc(F)ccc3F)nc12 (stereo not shown) [Example 31, 2-amino-5-(2-(2,5-difluorophenyl)pyrrolidin-1-yl)pyrazolo[1,5-a]pyrimidine-3-thioamide]
